Consider 87 compounds from a melting point compilation (Tetko et al.; mined from patent text by program, amines drawn as free bases though some values may be those of a salt).

The structures appear in SMILES notation. Where only a bound is given, the exact number is not on record here.

What is called melting point is the temperature of the solid-liquid transition. Compound `Cc1c(NC(=O)c2ccc(-c3ccc(F)cc3)cc2)ccc2cc(CN3CCC3)cnc12` had a melting point of 153 to 155 °C.
With `CCOC(=O)Nc1nc(C)c(-c2nc3ccccc3c(=O)n2-c2ccc(C(C)=O)cc2)s1` the figure was over 275 °C; with `CC(=O)Nc1c(C(=O)c2cccc(C)n2)[nH]c2cc(Cl)c(Br)cc12`, 234 to 236 °C; with `COc1ccc(S(=O)(=O)N(C(=O)C(F)(F)F)c2ccc(Cl)cc2Cc2c(F)cccc2F)cc1OC`, 79.7 °C.
With `C#CCOc1cc(-c2nn(C)c(S(C)=O)c2C)c(F)cc1Cl` (configuration not stated) the figure was 93 to 96 °C.
The figure for `CC1CCC(Nc2ccccc2)c2ncc(C(=O)O)c(=O)n21` (configuration not stated) is 198 to 199 °C.
`Nc1ncc(-c2ccccc2)nc1-c1ccc(O)cc1` registered a melting point of 181 to 183 °C.
Regarding `CN(C)S(=O)(=O)c1cccc(-c2nc(N)nc(N)n2)c1`, the melting point lay in the range of 250 to 251 °C.
The figure for `CC(NC(=O)C1(Cl)C(C)(C)C1(Cl)Cl)c1ccc(Cl)cc1` (configuration not stated) is 138 to 139 °C; for `NC(=O)CNC(=O)c1ccnc(-c2cccc3sc(Cc4cccc(C(F)(F)F)c4)cc23)c1` it is 49 to 50 °C; for `Cn1cnc(COc2nn3c(-c4ccc(F)cc4)nnc3cc2-c2ccsc2)n1` it is 254 to 255 °C.
With `CC(C)(C)C1CC=C(c2cc(C(F)(F)F)cc3[nH]c(N4CCN(c5ncccc5C(F)(F)F)CC4)nc23)CC1` (configuration not stated) the figure was 96 to 97.7 °C.
With `COc1ccc(S(=O)(=O)N2CCc3cccc(-c4ccc([N+](=O)[O-])cc4)c32)cc1` the figure was 177 to 178 °C; with `Cn1nc(-c2ccc(S(C)(=O)=O)cc2)c2ccccc2c1=O`, 218 to 220 °C.
`COc1cc2ncc(C#N)c(Nc3cc(C)ccc3O)c2cc1OC` showed a melting point of 198 to 200 °C.
`CC1(C)C(=CC=C2C(=O)c3ccccc3C2=C(C#N)C#N)N2CCCc3cccc1c32` registered a melting point of 291 °C.
The figure for `O=C(N[C@H](Cc1ccc(C(F)(F)F)cc1)[C@@H](O)c1ccc(F)cc1)c1cccc2cccnc12` (racemic) is 83 to 84 °C; for `CCCCCCCCCCC1(CCCCCCCCCC)c2cc(C=Cc3ccncc3)ccc2-c2ccc(N(c3ccccc3)c3ccccc3)cc21` it is 88.4 to 89.3 °C.
For the compound `COc1ccc2c(c1)C(Cl)c1ccccc1CO2` (configuration not stated), the melting point is 133 to 134 °C.
With `CCCN(CCC)[C@@H]1CCc2ccc(C(N)=O)cc2C1` the figure was 132 °C; with `O=C(O)c1[nH]c2ccc(C(O)(C(F)(F)F)C(F)(F)F)cc2c1-c1ccccc1`, 186 to 190 °C.
With `CCCCCNc1nc(NCC(C)C)c2ncn(CC(=O)O)c2n1` the figure was 139 to 148 °C.
The figure for `O=C(CCCCC(=O)NC1CCc2ccccc21)NC1CCc2ccccc21` (configuration not stated) is 227 °C; for `CN1C2=NCCCN2C(=O)c2cc(Cl)ccc21` it is 119 to 120 °C.
In the case of `COc1cc2c(cc1OC)[C@@H]1CN(C)CC[C@@H]1N=C2c1ccc(C)c(C)c1` (relative stereo), the melting point was in the range of 182 to 184 °C.
With `CC(C(N)=O)c1ccc2c(c1)CCc1cccnc1S2` (configuration not stated) the figure was 174 to 175 °C; with `Cc1c(/C=C/C(=O)c2ccccc2)ncn1C(c1ccccc1)(c1ccccc1)c1ccccc1`, 209 to 211 °C.
The figure for `C=C1c2ccccc2CC(=O)Cc2ccccc21` is 68 to 70 °C.
With `c1ccc(CSc2cnccc2C2=NOCCO2)cc1` the figure was 110 to 112 °C; with `CC(C)(C)OC(=O)N1CCC(COc2ccc(N3CCCC3)cc2)CC1`, 141 to 145 °C; with `CC(C)CCCC(C)NC(=O)Oc1ccc(Oc2ccccc2)cc1Br` (configuration not stated), 64 to 67 °C.
In the case of `Cc1cc(-c2nnc3c4ccccc4c(OCc4cc(C(C)(C)C)cnn4)nn23)no1`, the melting point is 219 to 221 °C.
The figure for `Fc1ccc(CCN2CCC(n3ccc4ccc(Br)cc43)CC2)cc1` is 99 to 101 °C; for `CN1CCN(CCc2ccc(Nc3ncc4c(n3)-c3ccccc3C(c3cccc(Br)c3)C4)cc2)CC1` (configuration not stated) it is 100 to 102 °C; for `COc1ccc(CC2CCCN(c3nc(C)c(C(=O)NCc4ccccc4)s3)C2=O)cc1` (configuration not stated) it is 116 to 118 °C.
Compound `Cc1c(C(=O)OCc2ccc(Cl)cc2)oc2cccc(O)c12` gave a melting point of 202 to 204 °C.
With `O=C(CC1=C(n2nc(-c3c(-c4ccccc4)nn4ccccc34)ccc2=O)CCCC1)N1CCCCC1`, the melting point was in the range of 184 to 185 °C.
With `O=C(NCCCCCCNC(=O)NS(=O)(=O)c1ccc(Br)o1)NS(=O)(=O)c1ccc(Br)o1` the figure was 98 to 99 °C; with `COc1cc2cc(C(=O)O)oc(=O)c2cc1OC`, 295 to 297 °C; with `CC1CCC2(C)C(CCC3C4CCC(=O)C4(C)CCC32)C1` (configuration not stated), 107 to 108 °C.
With `COc1nc2c(C)cc(C)cc2c(-c2ccccc2Cl)c1N(C(N)=O)c1ccc(F)cc1F` the figure was 231 to 232 °C; with `COC(=O)C=Cc1ccc(-c2ccc(O)cc2)cc1`, 233 to 235 °C; with `O=C(OCC1c2ccccc2-c2ccccc21)N1CCC(n2nc(-c3ccccc3)[nH]c2=O)CC1`, 142 °C.
With `CCOC(=O)C1=C(c2cccc(Cl)c2Cl)N(C(=O)OCC)C(=O)NC1C` (configuration not stated) the figure was 140 to 141 °C; with `O=P(O)(CO)c1ccccc1`, 134 to 136 °C.
Compound `OC[C@H]1OC[C@@H](n2cnc3cc(Cl)c(Cl)cc32)C[C@@H]1O` came in with a melting point of 197 °C.
With `CC(C)(C)OC(=O)N1CCO[C@@H]2Cc3c(O)cccc3C[C@H]21` the figure was 203 to 205 °C; with `N#Cc1cnn2c(C(F)(F)F)cc(-c3cccc(F)c3)nc12`, 199 °C.
With `CC(=O)c1ccc2cc(N3CCN(C(=O)OC(C)(C)C)CC3)ccc2c1` the figure was 153 to 154 °C.
With `Cc1ccc(/C=C/c2ccc(Cl)cc2[N+](=O)[O-])c([N+](=O)[O-])c1` the figure was 230 °C; with `COc1cccc(CC(=O)O)c1OCCCc1cn(-c2ccc(C(F)(F)F)cn2)nc1-c1ccccc1`, 134 to 135 °C; with `Cc1ccnc(NC(c2ccc([N+](=O)[O-])cc2)c2ccccc2O)n1` (configuration not stated), 136 to 145 °C.
In turn, `O=C1OCCN1N=C1CCOc2ccc([N+](=O)[O-])cc21` gave a melting point of 168 to 170 °C.
With `COc1cc(C(=O)O)ccc1Cn1ccc2ccc(NC(=O)CC3CCCC3)cc21` the figure was 259 to 260 °C; with `Cc1ccc(N2C=NC(=O)C23CCN(Cc2ccccc2)CC3)cc1`, 208 to 213 °C; with `CN(c1ccc(OC2CCCC2)cc1)S(C)(=O)=O`, 120 to 122 °C.
On to `CCCCC(CC(=O)Nc1cc(C(N)=O)ccc1C(C)(C)C)c1ccc(OC)cc1OCC` (configuration not stated), for which the melting point lay within 184 to 186 °C.
With `COC(=O)c1cncc(O)c1`, the melting point lay within 186 to 187 °C.
With `CC(=O)NCCNC(=O)c1ccc(Br)o1` the figure was 175 to 176 °C; with `COC(=O)CCC(=O)c1cc(C(C)C)c(Oc2nnnn2-c2ccccc2)c(C(C)C)c1`, 122 to 123 °C.
The figure for `O=C(NC1CCN(CCCc2ccc(F)cc2)C1)C12CC3CC(CC(C3)C1)C2` (configuration not stated) is 114 to 115 °C; for `CCn1ncc2c1ncc1c(=O)n(C)c3cc(C)nn3c12` it is 206 to 207 °C; for `OCCOc1ccc(Cn2ccnc2)cc1` it is 81 to 82 °C.
With `CC(C)OCC1(C(F)(F)F)c2cc(Cl)ccc2Nc2ncc(Cl)cc21` (configuration not stated) the figure was 137 to 138 °C; with `O=C(O)COc1ccc(CCc2ccc(N3CCNCC3)cc2)cc1`, over 250 °C; with `CCCCCC(CCCCCO)NCc1cc2cc3c(cc2c2cc(OC)ccc12)OCO3` (configuration not stated), 122 to 124 °C.
For the compound `Cc1c(Br)cc(Br)c(NC(=O)CBr)c1Br`, the melting point lay within 207 to 209 °C.
The figure for `CO[C@@H]1C[C@H](C(=O)Nc2ccc(N3CCOCC3=O)cc2)N(C(=O)Nc2ccc(Cl)cc2)C1` is 133 °C; for `C=C(C)CNc1cc(C(=O)O)cc(S(N)(=O)=O)c1Sc1ccc(NC(C)=O)cc1` it is 193 to 195 °C.
With `CCCc1c(-c2ccncc2)[nH]c(-c2ccncc2)c1C(=O)OCC` the figure was 209 to 211 °C; with `OC1CSC(Oc2cccnc2F)C(O)C1O` (configuration not stated), 85 to 87 °C; with `O=C(O)CCCCCCc1cnc2ccccc2c1`, 120 to 121 °C.
The figure for `CON=Cc1cc(Cl)cc(Cl)c1` is 53 °C; for `Clc1ccc2c(c1)CCc1cccc3c1C2CN=C3` (configuration not stated) it is 106 °C.
The compound `Nc1ncc(-c2ccc(=O)n(Cc3ccccc3)n2)c(-c2ccccc2)n1` yielded a melting point of 229 to 230 °C.
The compound `CC(=O)Nc1nc2c(s1)CCN(C(=O)OCc1ccccc1)CC2` returned a melting point of 126 to 128 °C.
With `O=Cc1c(Br)ncn1Cc1cc2c(cc1Cl)OCO2` the figure was 136 °C; with `Nc1cccc(Cc2ccccc2)n1`, 50.7 °C; with `CCOc1nnc(-c2ccc(C(F)(F)F)cc2)[nH]1`, 151 to 152 °C.
For the compound `CCOC(=O)C(C)(C)NC(=O)c1nnc2ccc(NCCCN3CCC(OC(c4ccccc4)c4ccccc4)CC3)nn12`, the melting point is 165 to 167 °C.
The figure for `CCS(=O)(=O)NCCCCn1c(=O)c2c(C)nc3cccc1n32` is 144 to 145 °C; for `CCOC(=O)c1ccc(/C=C(\C)c2ccc3c(c2)C(C)(C)CCN3C)cc1` it is 100 to 101 °C.
For the compound `O=C(O)CCOCCCc1cccc(-c2nc(=O)c3ccccc3s2)n1`, the melting point was in the range of 141 to 142 °C.
With `O=C(O)[C@H](Cc1ccccc1)Nc1c(N2CCN(c3ccccc3)CC2)c(=O)c1=O` the figure was 165 to 167 °C; with `COc1cc2cc(C(=O)N3CC(CCl)c4c3cc(N(C)C)c3ccccc43)[nH]c2c(OC)c1OC` (configuration not stated), 174 to 175 °C; with `CON=C(c1cnco1)c1ccccc1COc1cc(C)ccc1C`, 90 to 91 °C.
As for `COCC(COC)N1CCc2cc(Nc3ncc(Cl)c(Nc4ccc(C(N)=O)cc4OC)n3)c(OC)cc2CC1`, the melting point is 220 to 223 °C.
